Reference: article PMC3789174 (Cell Death & Disease, 2013)

Test system: PBMCs from CLL patients
Test: Peptide-induced cell death, PI staining and FACS
Assay type: cell-based, human
Details: relatively high concentrations; data not shown

Nc1nc(F)nc2c1ncn2[C@@H]1O[C@H](CO)[C@@H](O)[C@@H]1O [fludarabine]
cell killing effect on PBMCs isolated from CLL patients: only a weak cell killing effect
